Patent publication US11603377B2, “MTORC1 modulators and uses thereof” (Aeovian Pharmaceuticals, Inc., priority 2020, dated 2023)

What was measured:
FKBP51 = FKBP51 (Homo sapiens (Human), UniProt Q13451); assay: SPR assay to determine binding affinity to FKBP51 (direct binding); conditions: immobilized biotinylated avi-FKBP51
Procedure: Example 29: SPR Assay to Determine Binding Affinity to FKBP51
Biotinylated avi-FKBP51 was immobilized on a streptavidin chip (Cytiva Series S SA) using a Biacore 8K or 8 k+ (Cytiva). To achieve an immobilization level of 2000 RU, 3 μg/ml biotinylated avi-FKBP51 were injected for 360 sec at a flow rate of 10 μl/min. Rapalogs were diluted in DMSO to 100× working concentration. Each Rapalog was 100-fold diluted in 50 mM HEPES pH 7.5, 150 mM NaCl, 2 mM MgCl2, 1 mM DTT, 0.05% Tween-20 and a serial dilution prepared (8 concentrations, 3-fold dilutions, 0.5-1000 nM). […] The compound dilutions were then injected at 100 uL/min for 120 seconds contact time and with 3600 seconds dissociation time with increasing concentrations. 50 mM HEPES pH 7.5, 150 mM NaCl, 2 mM MgCl2, 1 mM DTT, 0.05% Tween-20, 1% DMSO was used as running buffer. Multi-cycle kinetics data were fit to a 1:1 binding model to measure the association rate ka (1/Ms), the dissociation rate kd (1/s) and the affinity Kd (M).

[1] = target: FKBP12 / FRB ternary complex (Homo sapiens (Human), UniProt P42345+P62942); assay: SPR assay to characterize ternary complex formation with FKBP12 (FRB binding to rapalog-saturated FKBP12); conditions: FRB dilutions with 100 nM rapalog on immobilized FKBP12
Procedure: Example 30: SPR Assay to Characterize Ternary Complex Formation with FKBP12
(§1) Biotinylated avi-FKBP12 was immobilized on a streptavidin chip (Cytiva Series S SA) using a Biacore 8K or 8 k+ (Cytiva). To achieve an immobilization level of 100 RU, 0.3 μg/ml biotinylated avi-FKBP12 were injected for 80 sec at a flow rate of 10 μl/min. Serial dilution of FRB was prepared (12 concentrations, 3-fold dilutions, 0.00011-20 μM) and supplemented with 100 nM of rapalog. A-B-A injection mode was used to ensure saturation immobilized FKBP12 with respective rapalog. 100 nM solution of the respective rapalog was injected before FRB injection for 120 sec and during dissociation for 420 sec. The FRB dilutions were then injected 120 seconds contact time with increasing concentrations. […] 50 mM HEPES pH 7.5, 150 mM NaCl, 2 mM MgCl2, 1 mM DTT, 0.05% Tween-20, 1% DMSO was used as running buffer at a flow rate of 30 μl/min. The multi-cycle kinetics data were fit to a 1:1 binding model to measure the association rate ka (1/Ms), the dissociation rate kd (1/s) and the affinity Kd (M). In case of fast association and dissociation, steady state affinity analysis following the law of mass action was used to determine the affinity Kd (M).

FKBP12 = FKBP12 (Homo sapiens (Human), UniProt P62942); assay: SPR assay to determine binding affinity to FKBP12 (direct binding); conditions: immobilized biotinylated avi-FKBP12
FKBP12, sequence (P62942 whole entry): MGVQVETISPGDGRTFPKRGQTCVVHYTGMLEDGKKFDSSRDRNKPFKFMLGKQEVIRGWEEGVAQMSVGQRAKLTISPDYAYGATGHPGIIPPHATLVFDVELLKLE
Procedure: SPR Assay to Determine Binding Affinity to FKBP12.
Biotinylated avi-FKBP12 was immobilized on a streptavidin chip (Cytiva Series S SA) using a Biacore 8K or 8 k+ (Cytiva). To achieve an immobilization level of 1000 RU, 2 μg/ml biotinylated avi-FKBP12 were injected for 100 sec at a flow rate of 10 μl/min. Rapalogs were diluted in DMSO to 100× working concentration. Each Rapalog was 100-fold diluted in 50 mM HEPES pH 7.5, 150 mM NaCl, 2 mM MgCl2, 1 mM DTT, 0.05% Tween-20 and a serial dilution prepared (9 concentrations, 3-fold dilutions, 0.08-500 nM). […] The compound dilutions were then injected at 100 uL/min for 120 seconds contact time in sequence with increasing concentrations. Dissociation was monitored for 3600 seconds. 50 mM HEPES pH 7.5, 150 mM NaCl, 2 mM MgCl2, 1 mM DTT, 0.05% Tween-20, 1% DMSO was used as running buffer. The single-cycle kinetics data were fit to a 1:1 binding model to measure the association rate ka (1/Ms), the dissociation rate kd (1/s) and the affinity Kd (M).

[2] = target: FKBP51 / FRB ternary complex (Homo sapiens (Human), UniProt P42345+Q13451); assay: SPR assay to characterize ternary complex formation with FKBP51 (FRB binding to rapalog-saturated FKBP51); conditions: FRB dilutions with 100 nM rapalog on immobilized FKBP51
Procedure: Example 31: SPR Assay to Characterize Ternary Complex Formation with FKBP51
as §1, with “Biotinylated avi-FKBP51” for “Biotinylated avi-FKBP12”, “of 200” for “of 100”, “RU, 0.6” for “RU, 0.3”, “biotinylated avi-FKBP51” for “biotinylated avi-FKBP12”, “for 150” for “for 80”

mTORC2 = mTORC2 (Homo sapiens (Human), UniProt P42345+P62942); assay: mTORC2 inhibition, AlphaLISA of Phospho-AKT (pAKT pS473) in PC3 cells; type: cell-based
Procedure: Example 32: mTORC1 Inhibition, mTORC2 Inhibition, Cell Lysis, AlphaLISA Experiments, and Data Analysis
mTORC2 inhibition was determined via analysis of phosphorylation level of Phospho-AKT (pAKT pS473) with the corresponding AlphaLISA kit (PerkinElmer, Alpha SF Ultra™ Multiplex p-AKT1/2/3(Ser473)/Total AKT1). PC3 cells were plated on 96 well plates in assay medium (DMEM: Ham's F12, basic (CLS Cell Lines Service GmbH, Cat #820400a), supplemented with additional 10% FBS at 1.20E+06 cells/mL and incubated over-night at 37° C., 5% CO2. On the following day, cells were treated with assay medium (10% FBS) containing increasing compound concentrations (12 points at 3-fold dilutions) and incubated for 6 hours at 37° C., 5% CO2. Thereafter, medium was aspirated and cells were rinsed with PBS. In the following, cells were treated with compound dilutions in starvation medium (DMEM: Ham's F12, basic; without FBS) for further 18 h at 37° C., 5% CO2. Then, immediately prior to cell lysis, cells were treated with 12% FBS for 15 min.
After performing experiments according to mTORC1 and mTORC2 protocols, cells were harvested in lysis buffer supplied with the AlphaLISA kits, additionally enriched with Roche cOmplete™ Protease Inhibitor Cocktail (Cat #CO-RO). Thus, cells were lysed using 50 μL of the lysis buffer and incubated for 60 min at 4° C. while shaking. After centrifugation at 4000 rpm for 5 min, experiments were performed according to the AlphaLISA manufacturer's protocol.
Ten microliters of cell lysates were mixed with the acceptor mix. After incubation for 2 h at room temperature, the donor mix was added. After additional incubation at room temperature for 2 hours, AlphaLISA signal was read on PHERAstar® FSX (BMG Labtech) with AlphaPLEX module.
EC50 values were calculated by ExcelFit standard algorithm.

mTORC1 = mTORC1 (Homo sapiens (Human), UniProt P42345+P62942); assay: mTORC1 inhibition, AlphaLISA of Phospho-p70 S6 kinase (p70S6K pT389) in PC-3 cells; type: cell-based; conditions: inhibition of p70S6K pT389 levels

FKBP51, sequence (Q13451 whole entry): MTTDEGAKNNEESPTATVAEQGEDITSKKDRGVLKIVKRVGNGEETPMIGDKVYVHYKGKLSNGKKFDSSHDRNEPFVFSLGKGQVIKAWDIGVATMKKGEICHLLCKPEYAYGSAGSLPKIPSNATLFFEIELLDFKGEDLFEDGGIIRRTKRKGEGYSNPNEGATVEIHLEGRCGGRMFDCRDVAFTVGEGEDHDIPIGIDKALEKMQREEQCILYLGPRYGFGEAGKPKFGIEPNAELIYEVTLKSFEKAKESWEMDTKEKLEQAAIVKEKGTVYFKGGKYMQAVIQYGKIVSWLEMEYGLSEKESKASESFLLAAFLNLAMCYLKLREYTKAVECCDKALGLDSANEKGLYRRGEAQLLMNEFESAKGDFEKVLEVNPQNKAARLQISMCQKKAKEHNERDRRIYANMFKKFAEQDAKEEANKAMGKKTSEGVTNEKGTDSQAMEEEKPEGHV

Kd (FKBP51) [nM] | Kd [1] [nM] | Kd (FKBP12) [nM] | Kd [2] [nM] | IC50 (mTORC1) [nM] | Structure (SMILES) | mTORC2 % inhibition at 1 uM (mTORC2)
10 to 100 | 300 to 800 | 0.3 to 1 | 300 to 800 | 0.1 to 0.8 | COC1C(=O)C(C)CC/C=C/C=C/C=C(\C)[C@@H](NS(=O)(=O)CCO)C[C@H]2CC[C@H](C)[C@](O)(O2)C(=O)C(=O)N(C)C(C)C(=O)OC([C@H](C)C[C@@H]2CC[C@@H](OC3CC3)[C@H](OC)C2)CC(=O)C(C)/C=C(\C)C1O (stereo partly drawn) [Compound 11] | A (A ≤20% inhibition at 1 micro Molar (uM))
10 to 100 | < 300 | < 0.3 | 300 to 800 | < 0.1 | COCCOCCS(=O)(=O)NC1CC2CCC(C)C(O)(O2)C(=O)C(=O)N2CCCCC2C(=O)OC(C(C)CC2CCC(OCCCS(C)(=O)=O)C(OC)C2)CC(=O)C(C)C=C(C)C(O)C(OC)C(=O)C(C)CC(C)C=CC=CC=C1C (mixture of isomers) [Compound 4] | A (A ≤20% inhibition at 1 micro Molar (uM))
> 100 | < 300 | > 1 | > 800 | 0.1 to 0.8 | CO[C@@H]1C[C@H](C[C@@H](C)[C@@H]2CC(=O)[C@H](C)/C=C(\C)[C@@H](O)[C@@H](OC)C(=O)[C@H](C)C[C@H](C)/C=C/C=C/C=C(\C)[C@@H](OCC3CC3)C[C@@H]3CC[C@@H](C)[C@@](O)(O3)C(=O)C(=O)N3CCCC[C@H]3C(=O)O2)CC[C@H]1OCCCS(C)(=O)=O [Compound 60] | B (B>20% and less than 40% inhibition at 1 uM)
< 10 | > 800 | < 0.3 | > 800 | 0.1 to 0.8 | CO[C@@H]1C[C@H](C[C@@H](C)[C@@H]2CC(=O)[C@H](C)/C=C(\C)[C@@H](O)[C@@H](OC)C(=O)[C@H](C)C[C@H](C)/C=C/C=C/C=C(\C)[C@@H](NS(=O)(=O)CC3CCOCC3)C[C@@H]3CC[C@@H](C)[C@@](O)(O3)C(=O)C(=O)N3CCCC[C@H]3C(=O)O2)CC[C@H]1O [Compound 6] | A (A ≤20% inhibition at 1 micro Molar (uM))
10 to 100 | 300 to 800 | < 0.3 | 300 to 800 | 0.1 to 0.8 | COCCS(=O)(=O)NC1CC2CCC(C)C(O)(O2)C(=O)C(=O)N2CCCCC2C(=O)OC(C(C)CC2CCC(O)C(OC)C2)CC(=O)C(C)C=C(C)C(O)C(OC)C(=O)C(C)CC(C)C=CC=CC=C1C (mixture of isomers) [Compound 24] | A (A ≤20% inhibition at 1 micro Molar (uM))
10 to 100 | 300 to 800 | 0.3 to 1 | 300 to 800 | 0.1 to 0.8 | COC1C(=O)C(C)CC/C=C/C=C/C=C(\C)[C@H](NS(=O)(=O)CCO)C[C@H]2CC[C@H](C)[C@](O)(O2)C(=O)C(=O)N(C)C(C)C(=O)OC([C@H](C)C[C@@H]2CC[C@@H](OC3CC3)[C@H](OC)C2)CC(=O)C(C)/C=C(\C)C1O (stereo partly drawn) [Compound 10] | A (A ≤20% inhibition at 1 micro Molar (uM))
10 to 100 | 300 to 800 | < 0.3 | > 800 | 0.1 to 0.8 | COCCS(=O)(=O)NC1CC2CCC(C)C(O)(O2)C(=O)C(=O)N2CCCCC2C(=O)OC(C(C)CC2CCC(OCCCS(C)(=O)=O)C(OC)C2)CC(=O)C(C)C=C(C)C(O)C(OC)C(=O)C(C)CC(C)C=CC=CC=C1C (mixture of isomers) [Compound 17] | A (A ≤20% inhibition at 1 micro Molar (uM))

Structure (SMILES) | Kd (FKBP51) [nM] | Kd [1] [nM] | Kd (FKBP12) [nM] | Kd [2] [nM] | IC50 (mTORC1) [nM] | mTORC2 % inhibition at 1 uM (mTORC2)
CO[C@@H]1C[C@H](C[C@@H](C)[C@@H]2CC(=O)[C@H](C)/C=C(\C)[C@H](O)[C@@H](OC)C(=O)[C@H](C)C[C@H](C)/C=C/C=C/C=C(\C)[C@@H](OCCC3COC3)C[C@@H]3CC[C@@H](C)[C@@](O)(O3)C(=O)C(=O)N3CCCC[C@H]3C(=O)O2)CC[C@H]1O [Compound 55] | > 100 | 300 to 800 | < 0.3 | > 800 | 0.1 to 0.8 | B (B>20% and less than 40% inhibition at 1 uM)
CCOC(=O)COC1CCC(CC(C)C2CC(=O)C(C)C=C(C)C(O)C(OC)C(=O)C(C)CC(C)C=CC=CC=C(C)C(OCC3CC3)CC3CCC(C)C(O)(O3)C(=O)C(=O)N3CCCCC3C(=O)O2)CC1OC (stereo not drawn) [Compound 50] | > 100 | 300 to 800 | > 1 | > 800 | > 0.8 | B (B>20% and less than 40% inhibition at 1 uM)
COC1CC(CC(C)C2CC(=O)C(C)C=C(C)C(O)C(OC)C(=O)C(C)CC(C)C=CC=CC=C(C)C(OCC3CC3)CC3CCC(C)C(O)(O3)C(=O)C(=O)N3CCCCC3C(=O)O2)CCC1OCCCO (stereo not drawn) [Compound 43] | > 100 | < 300 | > 1 | < 300 | > 0.8 | C (C≥40% and less than 60% inhibition at 1 uM)
